Measured values reported in ChEMBL document CHEMBL1156538, “Microwave-assisted solid phase synthesis, PEGylation, and biological activity studies of glucagon-like peptide-1(7-36) amide” (2008).

Experiments:
Assay type in all cases: functional
Mus musculus [1] = assay: Decrease in blood glucose level in Kunming mouse at 25 nmol/kg, ip administered 90 mins before 18 mmol/kg, ip glucose injection after 30 mins
Mus musculus [2] = assay: Decrease in blood glucose level in Kunming mouse at 25 nmol/kg, ip administered 90 mins before 18 mmol/kg, ip glucose injection after 45 mins
Mus musculus [3] = assay: Decrease in blood glucose level in Kunming mouse at 25 nmol/kg, ip administered 90 mins before 18 mmol/kg, ip glucose injection after 60 mins
Mus musculus [4] = assay: Decrease in blood glucose level in Kunming mouse at 25 nmol/kg, ip administered simultaneously with glucose at 18 mmol/kg, ip after 15 mins
Mus musculus [5] = assay: Decrease in blood glucose level in Kunming mouse at 25 nmol/kg, ip administered simultaneously with glucose at 18 mmol/kg, ip after 30 mins
Mus musculus [6] = assay: Decrease in blood glucose level in Kunming mouse at 25 nmol/kg, ip administered simultaneously with glucose at 18 mmol/kg, ip after 45 mins
Mus musculus [7] = assay: Decrease in blood glucose level in Kunming mouse at 25 nmol/kg, ip administered simultaneously with glucose at 18 mmol/kg, ip after 60 mins
Mus musculus [8] = assay: Decrease in blood glucose level in Kunming mouse at 25 nmol/kg, ip administered 90 mins before 18 mmol/kg, ip glucose injection after 15 mins

Work on `CC[C@H](C)[C@H](NC(=O)[C@H](Cc1ccccc1)NC(=O)[C@H](CCC(=O)O)NC(=O)[C@H](CCCCN)NC(=O)[C@H](C)NC(=O)[C@H](C)NC(=O)[C@H](CCC(N)=O)NC(=O)CNC(=O)[C@H](CCC(=O)O)NC(=O)[C@H](CC(C)C)NC(=O)[C@H](Cc1ccc(O)cc1)NC(=O)[C@H](CO)NC(=O)[C@H](CO)NC(=O)[C@@H](NC(=O)[C@H](CC(=O)O)NC(=O)[C@H](CO)NC(=O)[C@@H](NC(=O)[C@H](Cc1ccccc1)NC(=O)[C@@H](NC(=O)CNC(=O)[C@H](CCC(=O)O)NC(=O)CNC(=O)[C@@H](N)Cc1cnc[nH]1)[C@@H](C)O)[C@@H](C)O)C(C)C)C(=O)N[C@@H](C)C(=O)N[C@@H](Cc1c[nH]c2ccccc12)C(=O)N[C@@H](CC(C)C)C(=O)N[C@H](C(=O)N[C@@H](CCCCN)C(=O)NCC(=O)N[C@@H](CCCNC(=N)N)C(N)=O)C(C)C` yielded an Activity (Mus musculus [1]) of 14.67 mmol/L, an Activity (Mus musculus [2]) of 10.23 mmol/L and an Activity (Mus musculus [3]) of 9.18 mmol/L. For the same molecule, the Activity (Mus musculus [4]) was 12.98 mmol/L, the Activity (Mus musculus [5]) was 8.27 mmol/L and the Activity (Mus musculus [6]) was 7.7 mmol/L. It also gave an Activity (Mus musculus [7]) of 7.18 mmol/L and an Activity (Mus musculus [8]) of 17.92 mmol/L.
